Counter-ions that a name gives are not always drawn.

For this experiment, the target named is T1, Human α-thrombin (Homo sapiens, UniProt P00734).
T1 construct: Human α-thrombin, was obtained from Enzyme Research Laboratories; purchased Enzyme Research Laboratories (South Bend, Ind.)
Kind of experiment: In vitro inhibition of purified thrombin (Ki determination, p-nitroanilide substrate hydrolysis). The class given is biochemical. The conditions noted are these: purified human α-thrombin 0.5 nM, substrate N-succinyl-Ala-Ala-Pro-Arg-p-nitroanilide, 50 mM HEPES, 200 mM NaCl, pH 7.5, 37° C.; read-out: thrombin inhibitory activity. An excerpt: Reagents: All buffer salts were obtained from Sigma Chemical Company (St. Louis, Mo.), and were of the highest purity available. The enzyme substrates, N-benzoyl-Phe-Val-Arg-p-nitroanilide (Sigma B7632), N-benzoyl-Ile-Glu-Gly-Arg-p-nitroanilide hydrochloride (Sigma B2291), N-p-Tosyl-Gly-Pro-Lys-p-nitroanilide (Sigma T6140), N-succinyl-Ala-Ala-Pro-Phe-p-nitroanilide (Sigma S7388) and N-CBZ-Val-Gly-Arg-p-nitroanilide (Sigma C7271) were obtained from Sigma. N-succinyl-Ala-Ala-Pro-Arg-p-nitroanilide (BACHEM L-1720) and N-succinyl-Ala-Ala-Pro-Val-p-nitroanilide (BACHEM L-1770) were obtained from BACHEM (King of Prussia, Pa.). […]
Ki Determinations: All assays are based on the ability of the test compound to inhibit the enzyme catalyzed hydrolysis of a peptide p-nitroanilide substrate. […] In general, substrate concentrations are lower than the experimentally determined value for Km. […]
In a typical Ki determination, into each well of a 96 well plate is pipetted […] of substrate solution, […] of test compound solution, and the plate allowed to thermally equilibrate at 37° C. in a Molecular Devices plate reader for>15 minutes. Reactions were initiated by the addition of a […] aliquot of enzyme and the absorbance increase at 405 nm is recorded for 15 minutes. […] The data are fit to a linear regression, and the value of the slope of the line calculated. […]

Consider `Cc1cccc(S(=O)(=O)Nc2ccc(C)n(CC(=O)NCC3CNC(=N)NO3)c2=O)c1` (centres unmarked) [Example 1, N-[(3-Imino(1,2,4-oxadiazaperhydroin-6-yl))methyl]-2-(6methyl-3-{[(3methylphenyl)sulfonyl]amino}-2-oxohydropyridyl)acetamide trifluoroacetate], for which the Ki is 26 nM.
For the compound `Cc1cccc(S(=O)(=O)Nc2ccc(C)n(CC(=O)NC3CCN(C(=N)N)OC3)c2=O)c1` (centres unmarked) [Example 2, 5-[2-(6-Methyl-3-{[(3-methylphenyl)sulfonyl]amino}-2-oxohydropyridyl)acetylamino]-1,2-oxazaperhydroine-2-carboxamidine trifluoroacetate], the Ki was 0.38 nM.

(Values after patent US6326492A, “Heterocyclic protease inhibitors” (3-Dimensional Pharmaceuticals, Inc., priority 2000, dated 2001).)
